Results reported in patent publication US9718813B2, “Imidazolin-5-one derivative useful as FASN inhibitors for the treatment of cancer” (Janssen Pharmaceutica, NV, priority 2013, dated 2017).

molecular target: hFASN enzyme (full length) (Homo sapiens (Human), UniProt P49327); test: Fatty Acid Synthase (FASN) Inhibition Scintillation Proximity Assay; assay type: biochemical; conditions: 3H-acetyl-CoA and malonyl-CoA substrates, SPA, mean if tested more than once
Experimental: In this assay, inhibition of FASN activity is measured using ^3H-acetyl-CoA and malonyl-CoA as substrates. ^3H-Acetyl CoA is converted to ^3H-palmitate through a series of reactions by the FASN protein, which contains 7 functional domains and carries out 7 enzymatic reactions to ultimately produce ^3H-palmitate. The assay principle is based upon the fact that ^3H-acetyl-CoA is hydrophilic and the end product, ^3H-palmitate is hydrophobic.
10 μL assay buffer (100 mM KH2PO4 pH 7.5, 1 mM DTT) (20 μL in blanks) was added to a 384-well white Opti Plate plate (Perkin Elmer). 0.9 μL test compound (at concentrations of 30 μM, 10 μM, 3 μM, 1 μM, 0.30 μM, 0.10 μM, 0.03 μM and 0.01 μM)/DMSO and 10 μL hFASN enzyme (full length, 300 ng, purified in house) or 10 μL assay buffer was added to the wells. […] The reaction was stopped by adding 20 μL Streptavidin coupled imaging beads (25 mg/ml). After incubation for 30 minutes at room temperature in the dark, the 384 well plate was centrifuged at 1500 rpm for 3 minutes and was measured after at least 24 hrs by the LEADseeker™, measuring emission using a 610±20 nm pass filter.
Raw data generated by the instrument were normalized to % Controlmin values, which were calculated as: % Controlmin=100*(x−mLC)/(mHC−mLC)
where mLC and mHC were the means of the low control wells and high control wells on the plate, after manual exclusion of outliers. A plot of Controlmin versus test compound concentration was fitted to a 4-parameter logistic curve using a non-linear least squares regression method.

hFASN enzyme (full length), sequence (P49327 whole entry, the tested form may be a part): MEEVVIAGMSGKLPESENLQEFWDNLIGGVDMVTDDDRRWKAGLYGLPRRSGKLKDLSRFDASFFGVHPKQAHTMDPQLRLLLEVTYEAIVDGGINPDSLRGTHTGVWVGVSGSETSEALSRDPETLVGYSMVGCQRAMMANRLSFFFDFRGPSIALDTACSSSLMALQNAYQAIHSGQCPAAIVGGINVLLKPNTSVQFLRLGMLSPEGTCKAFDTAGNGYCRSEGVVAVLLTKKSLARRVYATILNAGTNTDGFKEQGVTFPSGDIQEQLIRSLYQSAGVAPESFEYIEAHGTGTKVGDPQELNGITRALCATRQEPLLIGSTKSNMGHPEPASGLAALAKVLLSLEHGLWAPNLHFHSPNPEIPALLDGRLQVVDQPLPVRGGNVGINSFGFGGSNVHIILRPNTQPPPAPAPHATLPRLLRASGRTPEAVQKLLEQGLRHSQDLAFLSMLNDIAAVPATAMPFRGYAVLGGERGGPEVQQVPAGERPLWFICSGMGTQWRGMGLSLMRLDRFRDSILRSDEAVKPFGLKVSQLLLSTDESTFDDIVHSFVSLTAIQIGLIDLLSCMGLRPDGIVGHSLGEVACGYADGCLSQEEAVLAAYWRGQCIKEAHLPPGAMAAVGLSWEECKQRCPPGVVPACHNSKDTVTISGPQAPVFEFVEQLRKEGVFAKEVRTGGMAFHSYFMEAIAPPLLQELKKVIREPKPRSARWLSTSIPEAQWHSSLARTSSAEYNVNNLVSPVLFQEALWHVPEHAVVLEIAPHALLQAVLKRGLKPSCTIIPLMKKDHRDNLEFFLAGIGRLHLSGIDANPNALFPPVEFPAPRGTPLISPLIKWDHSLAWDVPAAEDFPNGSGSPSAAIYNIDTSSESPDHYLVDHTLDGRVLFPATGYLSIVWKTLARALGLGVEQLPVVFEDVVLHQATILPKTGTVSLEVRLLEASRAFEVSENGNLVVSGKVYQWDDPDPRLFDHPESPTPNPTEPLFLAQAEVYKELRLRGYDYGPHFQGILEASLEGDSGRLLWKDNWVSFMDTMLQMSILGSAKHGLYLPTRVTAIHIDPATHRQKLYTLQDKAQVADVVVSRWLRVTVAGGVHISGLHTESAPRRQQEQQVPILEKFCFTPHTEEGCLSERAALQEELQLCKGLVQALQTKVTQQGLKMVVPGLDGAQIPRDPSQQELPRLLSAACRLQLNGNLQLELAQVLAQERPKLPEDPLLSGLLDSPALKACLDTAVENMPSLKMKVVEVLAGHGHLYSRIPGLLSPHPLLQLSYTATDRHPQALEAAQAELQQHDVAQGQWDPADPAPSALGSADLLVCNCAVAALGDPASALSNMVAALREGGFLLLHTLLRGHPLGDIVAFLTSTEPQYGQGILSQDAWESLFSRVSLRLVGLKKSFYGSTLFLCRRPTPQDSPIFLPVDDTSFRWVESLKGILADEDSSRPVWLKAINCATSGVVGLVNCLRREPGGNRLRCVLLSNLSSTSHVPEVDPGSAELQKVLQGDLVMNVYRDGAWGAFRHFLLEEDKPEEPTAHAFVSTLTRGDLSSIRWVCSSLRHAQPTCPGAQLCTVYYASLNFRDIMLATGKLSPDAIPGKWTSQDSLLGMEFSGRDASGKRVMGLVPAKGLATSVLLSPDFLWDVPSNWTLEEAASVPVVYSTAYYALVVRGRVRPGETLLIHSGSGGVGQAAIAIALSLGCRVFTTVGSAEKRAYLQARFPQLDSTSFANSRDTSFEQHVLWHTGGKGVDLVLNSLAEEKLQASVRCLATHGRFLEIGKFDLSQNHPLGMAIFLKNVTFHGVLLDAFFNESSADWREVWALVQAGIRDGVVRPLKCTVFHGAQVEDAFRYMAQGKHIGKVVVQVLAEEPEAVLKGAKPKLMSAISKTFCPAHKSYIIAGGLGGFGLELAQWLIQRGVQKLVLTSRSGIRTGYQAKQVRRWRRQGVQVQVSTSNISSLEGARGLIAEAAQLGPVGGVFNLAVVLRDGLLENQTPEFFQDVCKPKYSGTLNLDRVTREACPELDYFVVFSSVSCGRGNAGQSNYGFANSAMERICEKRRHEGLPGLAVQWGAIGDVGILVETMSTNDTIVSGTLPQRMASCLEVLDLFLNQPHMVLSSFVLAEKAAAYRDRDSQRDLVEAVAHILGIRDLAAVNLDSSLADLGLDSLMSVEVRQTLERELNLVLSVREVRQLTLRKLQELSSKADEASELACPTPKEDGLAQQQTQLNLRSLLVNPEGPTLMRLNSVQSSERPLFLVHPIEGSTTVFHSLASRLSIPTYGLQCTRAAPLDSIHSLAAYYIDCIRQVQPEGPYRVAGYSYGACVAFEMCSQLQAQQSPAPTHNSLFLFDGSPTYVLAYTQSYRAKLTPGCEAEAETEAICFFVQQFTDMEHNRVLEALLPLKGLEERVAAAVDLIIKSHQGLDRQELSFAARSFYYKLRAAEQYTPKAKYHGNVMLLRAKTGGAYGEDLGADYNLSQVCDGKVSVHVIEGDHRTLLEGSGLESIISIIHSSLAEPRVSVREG

Row | SMILES | Human FASN pIC50
1 | CC1(C)N=C(c2ccc(-c3nc4ccccc4o3)cc2)N(CC2CN(C(=O)C3CC3)C2)C1=O [Compound 12, 2-(4-(benzo[d]oxazol-2-yl)phenyl)-1-((1-(cyclopropanecarbonyl)azetidin-3-yl)methyl)-4,4-dimethyl-1H-imidazol-5(4H)-one] | ~5.37
2 | CC1(C)N=C(c2ccc(-c3cccc4ncccc34)cc2)N(CC2CN(C(=O)C3CC3)C2)C1=O [Compound 18, 1-((1-(cyclopropanecarbonyl)azetidin-3-yl)methyl)-4,4-dimethyl-2-(4-(quinolin-5-yl)phenyl)-1H-imidazol-5(4H)-one] | ~5.25
3 | CC1(C)N=C(c2ccc(-c3cnc4ccccc4c3)cc2)N(CC2CN(C(=O)C3CC3)C2)C1=O [Compound 19, 1-((1-(cyclopropanecarbonyl)azetidin-3-yl)methyl)-4,4-dimethyl-2-(4-(quinolin-3-yl)phenyl)-1H-imidazol-5(4H)-one] | 5.38
4 | CC1(C)N=C(c2ccc(-c3cccc4cnccc34)cc2F)N(CC2CN(C(=O)C3CC3)C2)C1=O [Compound 21, 1-((1-(cyclopropanecarbonyl)azetidin-3-yl)methyl)-2-(2-fluoro-4-(isoquinolin-5-yl)phenyl)-4,4-dimethyl-1H-imidazol-5(4H)-one] | 5.87
5 | CC1(C)N=C(c2ccc(-c3n[nH]c4ccccc34)cc2)N(C[C@@H]2CCN(C(=O)C3CC3)C2)C1=O [Compound 35, (R)-2-(4-(1H-indazol-3-yl)phenyl)-1-((1-(cyclopropanecarbonyl)pyrrolidin-3-yl)methyl)-4,4-dimethyl-1H-imidazol-5(4H)-one] | ~5.19
6 | CC1(C)N=C(c2ccc(-c3ccc4cncnc4c3)cc2)N(CC2CN(C(=O)C3CC3)C2)C1=O [Compound 36, 1-((1-(cyclopropanecarbonyl)azetidin-3-yl)methyl)-4,4-dimethyl-2-(4-(quinazolin-7-yl)phenyl)-1H-imidazol-5(4H)-one] | 5.43
7 | CC1(C)N=C(c2ccc(-c3ccc4ncccc4c3)cc2F)N(C[C@@H]2CCN(C(=O)C3CC3)C2)C1=O [Compound 37, (R)-1-((1-(cyclopropanecarbonyl)pyrrolidin-3-yl)methyl)-2-(2-fluoro-4-(quinolin-6-yl)phenyl)-4,4-dimethyl-1H-imidazol-5(4H)-one] | 5.86
8 | CC1(C)N=C(c2ccc(-c3ccc4ncccc4c3)cc2F)N(CC2CN(C(=O)C3CC3)C2)C1=O [Compound 38, 1-((1-(cyclopropanecarbonyl)azetidin-3-yl)methyl)-2-(2-fluoro-4-(quinolin-6-yl)phenyl)-4,4-dimethyl-1H-imidazol-5(4H)-one] | 5.05
9 | CC1(C)N=C(c2ccc(-c3n[nH]c4ccccc34)cc2F)N(CC2CN(C(=O)C3CC3)C2)C1=O [Compound 58, 1-((1-(cyclopropanecarbonyl)azetidin-3-yl)methyl)-2-(2-fluoro-4-(1H-indazol-3-yl)phenyl)-4,4-dimethyl-1H-imidazol-5(4H)-one] | 6.00
10 | CC1(C)N=C(c2ccc(-c3c[nH]c4ccccc34)cc2)N(CC2CN(C(=O)C3CC3)C2)C1=O [Compound 59, 2-(4-(1H-indol-3-yl)phenyl)-1-((1-(cyclopropanecarbonyl)azetidin-3-yl)methyl)-4,4-dimethyl-1H-imidazol-5(4H)-one] | ~5.79
11 | CC1(C)N=C(c2ccc(-c3ccc4ncccc4c3)cc2)N(C[C@@H]2CCN(C(=O)C3CC3)C2)C1=O [Compound 64, (R)-1-((1-(cyclopropanecarbonyl)pyrrolidin-3-yl)methyl)-4,4-dimethyl-2-(4-(quinolin-6-yl)phenyl)-1H-imidazol-5(4H)-one] | 5.67
12 | CC1(C(=O)N2CC[C@@H](CN3C(=O)C(C)(C)N=C3c3ccc(-c4ccc5cc(F)ccc5c4)cc3F)C2)CC1 [Compound 75, (R)-2-(2-fluoro-4-(6-fluoronaphthalen-2-yl)phenyl)-4,4-dimethyl-1-((1-(1-methylcyclopropanecarbonyl)pyrrolidin-3-yl)methyl)-1H-imidazol-5(4H)-one] | 7.26
